Assay results from US10596172B2 (Celgene CAR LLC, priority 2008, dated 2020).
Where two headings read alike, the source gives them in different places.

How the values were obtained:
JAK3 = JAK3 (Homo sapiens (Human), UniProt P52333); assay: Omnia assay for potency assessment against the active form of JAK3; format: biochemical; conditions: read-out: JAK3 Inhibition
BTK [1] = target: T1, BTK (Homo sapiens (Human), UniProt Q06187); assay: Human primary B cell covalent probe occupancy in vitro; format: cell-based; conditions: human primary B cells, 1 h at 37° C.
T1 sequence (Q06187 whole entry): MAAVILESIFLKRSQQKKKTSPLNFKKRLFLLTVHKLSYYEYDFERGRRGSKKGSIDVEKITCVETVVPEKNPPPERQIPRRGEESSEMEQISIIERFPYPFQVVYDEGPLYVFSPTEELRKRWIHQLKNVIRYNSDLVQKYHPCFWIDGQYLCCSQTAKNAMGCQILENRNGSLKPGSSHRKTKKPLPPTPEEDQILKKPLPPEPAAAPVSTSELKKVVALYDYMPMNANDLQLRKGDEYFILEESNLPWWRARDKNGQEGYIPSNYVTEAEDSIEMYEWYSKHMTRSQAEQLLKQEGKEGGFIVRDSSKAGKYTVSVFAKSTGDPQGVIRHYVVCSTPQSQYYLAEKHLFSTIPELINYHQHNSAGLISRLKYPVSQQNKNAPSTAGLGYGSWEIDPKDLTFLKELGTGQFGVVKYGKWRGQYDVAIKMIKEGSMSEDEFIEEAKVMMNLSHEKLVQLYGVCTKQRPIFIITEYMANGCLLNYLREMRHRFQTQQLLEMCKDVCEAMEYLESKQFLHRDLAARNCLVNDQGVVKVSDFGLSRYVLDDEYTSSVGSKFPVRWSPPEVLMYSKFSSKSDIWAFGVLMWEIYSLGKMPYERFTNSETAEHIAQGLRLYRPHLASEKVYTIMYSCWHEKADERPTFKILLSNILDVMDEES
Protocol: All samples were prepared with equal concentrations of Biorad lysis buffer (Hercules, Calif., USA), 0.5% bovine serum albumin in PBS with 0.05% Tween-20 to give a final concentration of 1 μM I-215. Samples were incubated in a mixing plate for 1 hr at room temperature while shaking to allow probe compound I-215 to bind to free BTK. After incubation with I-215, samples were added to a washed, streptavidin-coated ELISA plate (Pierce, Rockford, Ill., USA) and incubated for 1 hr at room temperature while shaking. The plate was then washed with PBS containing 0.05% Tween-20 using an automatic plate washer. Anti-BTK antibody was prepared at 1:1000 dilution in 0.5% BSA in PBS (0.05% Tween-20) and added to the ELISA plate. The plate was incubated for 1 hr at room temperature while shaking. The plate was washed as described above and the secondary HRP antibody was prepared at 1:5000 dilution in 0.5% BSA in PBS (0.05% Tween-20). […] TMB was added to the plate, and OD650 was monitored until reaching 1 OD unit. […] The plate was analyzed using Gen 5 software, and a 4 Parameter Logistic curve was employed to quantitate samples. […]
Human primary B cells were isolated as described in Example 256, then resuspended in RPMI media (10% serum). The compound to be analyzed was added at a 1:1000 dilution to media. […] The supernatant was analyzed as described in Example 283 using I-215.

BTK [2] = target: BTK (Canis lupus familiaris, UniProt A0A8I3P3Z9); assay: Dog primary B cell covalent probe occupancy in vitro; format: cell-based; conditions: canine PBMCs, one hour at 37° C.
Sequence of BTK (Canis lupus familiaris, UniProt A0A8I3P3Z9) (A0A8I3P3Z9 1-664): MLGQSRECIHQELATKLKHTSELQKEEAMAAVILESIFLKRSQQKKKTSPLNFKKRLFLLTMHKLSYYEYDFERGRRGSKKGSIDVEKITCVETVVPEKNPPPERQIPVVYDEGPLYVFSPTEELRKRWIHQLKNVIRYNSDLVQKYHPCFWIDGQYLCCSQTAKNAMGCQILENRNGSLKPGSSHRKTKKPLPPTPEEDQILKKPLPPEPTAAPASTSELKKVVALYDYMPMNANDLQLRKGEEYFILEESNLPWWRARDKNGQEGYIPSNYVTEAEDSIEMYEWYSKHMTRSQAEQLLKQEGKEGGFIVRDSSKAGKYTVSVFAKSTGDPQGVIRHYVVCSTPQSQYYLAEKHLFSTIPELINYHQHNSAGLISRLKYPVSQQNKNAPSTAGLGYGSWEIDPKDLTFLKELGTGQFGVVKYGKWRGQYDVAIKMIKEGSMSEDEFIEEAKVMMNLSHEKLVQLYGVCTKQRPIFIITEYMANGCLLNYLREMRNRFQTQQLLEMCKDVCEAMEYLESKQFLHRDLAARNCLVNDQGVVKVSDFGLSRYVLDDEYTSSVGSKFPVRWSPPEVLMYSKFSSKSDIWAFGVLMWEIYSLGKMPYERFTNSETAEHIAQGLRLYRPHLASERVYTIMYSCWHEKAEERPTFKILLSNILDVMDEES
Protocol: All samples were prepared with equal concentrations of Biorad lysis buffer (Hercules, Calif., USA), 0.5% bovine serum albumin in PBS with 0.05% Tween-20 to give a final concentration of 1 μM I-215. Samples were incubated in a mixing plate for 1 hr at room temperature while shaking to allow probe compound I-215 to bind to free BTK. After incubation with I-215, samples were added to a washed, streptavidin-coated ELISA plate (Pierce, Rockford, Ill., USA) and incubated for 1 hr at room temperature while shaking. The plate was then washed with PBS containing 0.05% Tween-20 using an automatic plate washer. Anti-BTK antibody was prepared at 1:1000 dilution in 0.5% BSA in PBS (0.05% Tween-20) and added to the ELISA plate. The plate was incubated for 1 hr at room temperature while shaking. The plate was washed as described above and the secondary HRP antibody was prepared at 1:5000 dilution in 0.5% BSA in PBS (0.05% Tween-20). The plate was incubated and washed as described above. TMB was added to the plate, and OD650 was monitored until reaching 1 OD unit. […] The plate was analyzed using Gen 5 software, and a 4 Parameter Logistic curve was employed to quantitate samples. […]
Canine whole blood (30 mL) was diluted to 50 mL total with 1×PBS and layered on top of Histopaque-1077 (Sigma Aldrich). […] The supernatant was analyzed as described in Example 283 using I-215. […]

BTK [3] = target: BTK (Rattus norvegicus, UniProt Q5S255); assay: BTK occupancy from in vivo samples by ELISA; conditions: po, rats dosed orally 30 mg/kg
Sequence of BTK (Rattus norvegicus, UniProt Q5S255) (Q5S255 1-660): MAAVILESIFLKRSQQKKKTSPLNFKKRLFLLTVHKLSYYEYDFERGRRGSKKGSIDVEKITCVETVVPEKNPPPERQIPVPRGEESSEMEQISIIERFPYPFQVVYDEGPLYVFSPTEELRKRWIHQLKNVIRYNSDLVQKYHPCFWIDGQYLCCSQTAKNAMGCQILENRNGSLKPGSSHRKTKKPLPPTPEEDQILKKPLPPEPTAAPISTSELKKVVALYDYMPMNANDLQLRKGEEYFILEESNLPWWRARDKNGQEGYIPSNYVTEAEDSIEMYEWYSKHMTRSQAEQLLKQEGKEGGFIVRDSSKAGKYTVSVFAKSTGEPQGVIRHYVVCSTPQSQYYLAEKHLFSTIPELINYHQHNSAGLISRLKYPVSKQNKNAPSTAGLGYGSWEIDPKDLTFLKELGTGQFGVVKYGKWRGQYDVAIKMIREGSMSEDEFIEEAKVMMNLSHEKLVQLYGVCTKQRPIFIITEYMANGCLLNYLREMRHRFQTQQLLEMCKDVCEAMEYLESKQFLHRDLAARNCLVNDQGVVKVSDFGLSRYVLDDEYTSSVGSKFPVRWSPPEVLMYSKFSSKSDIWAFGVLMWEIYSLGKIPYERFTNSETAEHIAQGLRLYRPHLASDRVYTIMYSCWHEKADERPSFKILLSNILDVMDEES
Protocol: (§1) All samples were prepared with equal concentrations of Biorad lysis buffer (Hercules, Calif., USA), 0.5% bovine serum albumin in PBS with 0.05% Tween-20 to give a final concentration of 1 μM I-215. Samples were incubated in a mixing plate for 1 hr at room temperature while shaking to allow probe compound I-215 to bind to free BTK. After incubation with I-215, samples were added to a washed, streptavidin-coated ELISA plate (Pierce, Rockford, Ill., USA) and incubated for 1 hr at room temperature while shaking. The plate was then washed with PBS containing 0.05% Tween-20 using an automatic plate washer. Anti-BTK antibody was prepared at 1:1000 dilution in 0.5% BSA in PBS (0.05% Tween-20) and added to the ELISA plate. The plate was incubated for 1 hr at room temperature while shaking. The plate was washed as described above and the secondary HRP antibody was prepared at 1:5000 dilution in 0.5% BSA in PBS (0.05% Tween-20). The plate was incubated and washed as described above. TMB was added to the plate, and OD650 was monitored until reaching 1 OD unit. The reaction was then stopped with addition of H2SO4. The plate was analyzed using Gen 5 software, and a 4 Parameter Logistic curve was employed to quantitate samples. Recombinant BTK (Invitrogen, Carlsbad, Calif., USA) was used for the standard curve.
Rats were dosed orally with 30 mg/kg of compound and spleens were harvested either 2 or 24 hours after compound treatment. Rat spleens were disrupted between two microscope slides coated with frosted glass to recover single cell suspensions. Red blood cells were lysed by incubating with RBC lysis buffer (Boston BioProducts) for 2 minutes at room temperature, the cells were then resuspended in RPMI complete media and pelleted by centrifugation. Rat B cells were isolated by positive selection with B220+ antibody-magnetic bead conjugates, purified by MACS column and lysed in Bio-Rad lysis buffer at a concentration of 10 million cells/100 μl. Lysates were analyzed employing the biotinylated probe compound I-215 in an ELISA protocol as described in detail in Example 278.

Human naïve B cells = assay: Human primary B cell proliferation assay; format: cell-based; conditions: 5 μg/ml α-IgM 72 hours, 3H-thymidine incorporation
Protocol: Human naïve B cells were purified from 100 mL whole blood using a MACS purification kit designed to isolate CD19+, IgD+ cells by negative selection. Purified naïve B cells were resuspended in RPMI complete and stimulated with 5 μg/ml α-IgM for 72 hours. ^3H-Thymidine was included in the culture media for the final 16 h, cells were harvested and ^3H incorporation measured. Inhibition of B cell proliferation correlates with inhibition of BTK substrate phosphorylation after α-IgM stimulation.

[4] = test system: B cell lymphoma cell lines; assay: B cell lymphoma proliferation assay; format: cell-based
BTK [5] = target: T1, BTK; assay: Mass spectrometry for BTK (covalent modification of intact protein); format: binding; conditions: 1 hr, 10x fold excess of compound
Protocol: Intact BTK was incubated for 1 hr at a 10× fold excess of I-7 to protein. Aliquots (2 μl) of the samples were diluted with 10 μl of 0.1% TFA prior to micro C4 ZipTipping directly onto the MALDI target using Sinapinic acid as the desorption matrix (10 mg/ml in 0.1% TFA:Acetonitrile 20:80).

BTK [6] = target: T1, BTK; assay: BTK occupancy from in vitro samples by ELISA (Ramos cells); format: cell-based
Protocol: In order to determine the amount of free BTK in cell or tissue lysates, an ELISA protocol was employed that utilizes a biotinylated probe compound that binds only to free, unoccupied BTK. The conjugated biotin is captured on a streptavidin-coated ELISA plate and detected with a mouse anti-BTK antibody (Becton Dickinson, Franklin Lakes, N.J., USA) and a secondary goat anti-mouse HRP antibody (Zymed, South San Francisco, Calif., USA).
as §1
A concentration designated as “A” is greater than 1 nM; a concentration designated as “B” is greater than 10 nM; and a concentration designated as “C” is greater than 50 nM.

[7] = spleen B cells harvested 2 hours after treatment, read-out: % BTK Occupancy 2 h
[8] = spleen B cells harvested 24 hours after treatment, read-out: % BTK Occupancy 24 h
[9] = Homo sapiens, DOHH-2, DOHH2 B cell lymphoma cell line, read-out: EC50 (μM) DOHH2
[10] = Homo sapiens, WSUDLCL2, WSU-DLCL2 B cell lymphoma cell line, read-out: EC50 (μM) WSU-DLCL2

Sequence of JAK3 (P52333 whole entry): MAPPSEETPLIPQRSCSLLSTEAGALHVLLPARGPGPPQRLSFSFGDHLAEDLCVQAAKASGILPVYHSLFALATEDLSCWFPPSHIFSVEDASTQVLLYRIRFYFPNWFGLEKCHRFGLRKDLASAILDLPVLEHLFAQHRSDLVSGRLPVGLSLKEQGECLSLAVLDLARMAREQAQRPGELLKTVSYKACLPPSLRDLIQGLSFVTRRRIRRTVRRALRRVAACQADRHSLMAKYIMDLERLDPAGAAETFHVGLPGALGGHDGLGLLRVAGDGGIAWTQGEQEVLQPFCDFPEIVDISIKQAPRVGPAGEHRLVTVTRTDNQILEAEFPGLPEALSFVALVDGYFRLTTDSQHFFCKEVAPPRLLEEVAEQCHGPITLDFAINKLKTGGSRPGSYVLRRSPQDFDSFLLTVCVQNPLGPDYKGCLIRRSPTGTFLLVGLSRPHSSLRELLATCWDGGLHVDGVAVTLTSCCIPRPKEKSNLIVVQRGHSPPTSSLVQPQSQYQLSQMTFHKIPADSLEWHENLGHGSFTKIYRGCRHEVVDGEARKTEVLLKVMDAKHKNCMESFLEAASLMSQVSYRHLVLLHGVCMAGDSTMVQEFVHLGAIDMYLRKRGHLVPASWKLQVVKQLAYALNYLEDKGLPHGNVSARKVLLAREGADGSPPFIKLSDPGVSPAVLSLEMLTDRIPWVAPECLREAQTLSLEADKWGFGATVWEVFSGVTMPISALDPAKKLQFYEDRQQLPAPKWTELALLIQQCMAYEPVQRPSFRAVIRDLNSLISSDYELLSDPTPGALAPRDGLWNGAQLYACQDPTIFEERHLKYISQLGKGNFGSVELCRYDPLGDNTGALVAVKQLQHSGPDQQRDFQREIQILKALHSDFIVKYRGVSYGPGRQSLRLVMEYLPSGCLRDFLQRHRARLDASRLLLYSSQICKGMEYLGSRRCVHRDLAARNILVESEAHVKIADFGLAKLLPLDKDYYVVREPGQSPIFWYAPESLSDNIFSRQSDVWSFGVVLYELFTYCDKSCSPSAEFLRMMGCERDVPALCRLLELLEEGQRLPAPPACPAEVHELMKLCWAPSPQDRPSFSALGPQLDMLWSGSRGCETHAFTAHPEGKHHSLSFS

Row | Structure (SMILES) | IC50 (JAK3) [nM] | concentration at which at least 50% of BTK is occupied (BTK [1]) | concentration at which at least 50% of BTK is occupied (BTK [2]) | receptor occupancy at 30 mg/kg (BTK [3]; [7]) [%] | receptor occupancy at 30 mg/kg (BTK [3]; [8]) [%] | EC50 (Human naïve B cells) [nM] | EC50 [4, 9] [µM] | EC50 [4, 10] [µM] | covalent modification of BTK by mass spectrometry (BTK [5]) | >50% occupancy (concentration at which >50% of BTK is occupied) (BTK [6]) | >90% occupancy (concentration at which >90% of BTK is occupied) (BTK [6]) | EC50 ([4]; DHL4 B cell lymphoma cell line, read-out: EC50 (μM) DHL4) [µM]
1 | C=CC(=O)Nc1cccc(Nc2nc(Nc3ccc(OCCOC)c(F)c3)ncc2F)c1 [Compound I-96, N-(3-(2-(3-fluoro-4-(2-methoxyethoxy)phenylamino)-5-fluoropyrimidin-4-ylamino)phenyl)acrylamide] | < 10 | greater than 10 nM | greater than 10 nM | 87 | 60 | 1 to 10 | 0.1 to 1 | 1 to 10 | completely modify | A (greater than 1 nM) | B (greater than 10 nM) | 
2 | C=CC(=O)Nc1cccc(Nc2nc(Nc3ccc(OCCOC)cc3)ncc2F)c1 [Compound I-182, N-(3-(5-fluoro-2-(4-(2-methoxyethoxy)phenylamino)pyrimidin-4-ylamino)phenyl)acrylamide] | < 10 | greater than 10 nM |  | 99 | 79 | 1 to 10 | 1 to 10 | 1 to 10 | completely modify | A (greater than 1 nM) | C (greater than 50 nM) | 1 to 10
